What all share (experiment): Bliss excess, mean over the matrix (fraction); higher = more synergy
Assay [1] has as its system KMS-12-BM (Plasma Cell Myeloma). The procedure, abridged: (§1)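 After 24 hours at 37°C and 5% CO2 in 1536-well plates, cells in DMEM/F12 or RPMI plus 10% FBS received two-drug dose matrices for 72 hours. Viability came from CellTiter-Glo 2.0 luminescence and was scaled as inhibition, anchored at 0 by vehicle wells and at 1 by blank wells. Combination Emax is taken as the second-highest inhibition in the matrix, and Bliss excess as the observed combination effect less EA + EB − EA·EB, with EA and EB the single-agent effects.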

Assay [2] has as its system ESO51 (Esophageal Adenocarcinoma). The procedure, abridged:
as §1

Assay [3] concerns 8505C (Thyroid Gland Carcinoma). The procedure, abridged:
as §1

The test system of assay [4] is T-T (Esophageal Squamous Cell Carcinoma). The gist of the method:
as §1

For assay [5], the system named is SK-GT-4 (Esophageal Adenocarcinoma). The gist of the method:
as §1

Assay [6] relates to NCI-H3122 (Lung Adenocarcinoma). The gist of the method:
as §1

The subject of assay [7] is SNU-398 (Hepatocellular Carcinoma). The procedure, abridged: as §1
Assay [8] deals with NCI-H661 (Non-Small Cell Lung Carcinoma). The procedure, abridged: as §1
Another assay deals with RD (Rhabdomyosarcoma). The gist of the method:
as §1

Assay [9] concerns VMRC-RCZ (Kidney Carcinoma). The gist of the method: as §1
The test system of a further assay is NCI-H2731 (Mesothelioma). The gist of the method:
as §1

Assay [10] concerns RPMI-8226 (Plasma Cell Myeloma). The procedure, abridged:
as §1

Assay [11] has as its system DMS-114 (Small Cell Lung Carcinoma). The procedure, abridged: as §1
Assay [12] relates to SU-DHL-5 (B-Cell Non-Hodgkin's Lymphoma). The procedure, abridged: as §1
In assay [13] the test system is CW-2 (Colorectal Carcinoma). The procedure, abridged: as §1
Assay [14] relates to KU812 (Chronic Myelogenous Leukemia). The gist of the method: as §1
In assay [15] the test system is COR-L279 (Small Cell Lung Carcinoma). The gist of the method: as §1
For assay [16], the system named is SK-GT-2 (Gastric Carcinoma). The procedure, abridged: as §1
Assay [17] concerns HCC1419 (Breast Carcinoma). The gist of the method: as §1
Assay [18] deals with NCI-H520 (Squamous Cell Lung Carcinoma). The procedure, abridged:
as §1

Structures are written as SMILES.

With `CN(CCO)CC[C@H](CSc1ccccc1)Nc1ccc(S(=O)(=O)NC(=O)c2ccc(N3CCC([C@@H](O)c4ccccc4-c4ccc(Cl)cc4)CC3)cc2)cc1S(=O)(=O)C(F)(F)F` [AZD4320] + C[C@@H](Nc1cc(F)cc(F)c1)c1cc(C(=O)N(C)C)cc2c(=O)cc(N3CCOCC3)oc12 [AZD8186] (first compound max 1 µM, 7x7, partner max 3 µM), the Bliss excess is 0.0652 in assay [1]; 0.0996 in assay [2]; 0.0411 in assay [3]; 0.054 in assay [4]; -0.0206 in [5]; 0.0005 in assay [6]. Moreover, the Bliss excess is 0.0201 in assay [7]; 0.0424 in [8]; 0.0328 in the assay with RD (Rhabdomyosarcoma); -0.0096 in assay [9]; 0.0288 in the assay on NCI-H2731 (Mesothelioma); 0.0151 in [10]. The Bliss excess in [11] was -0.0096; in assay [12], 0.0003; in assay [13], -0.0073; in assay [14], 0.0161; in assay [15], 0.0217; in assay [16], 0.0296. For the same compound, the Bliss excess turned out to be 0.0282 in [17] and 0.0618 in [18].
Consider `CC1(C)CCC(CN2CCN(c3ccc(C(=O)NS(=O)(=O)c4ccc(NCC5CCOCC5)c([N+](=O)[O-])c4)c(Oc4cnc5[nH]ccc5c4)c3)CC2)=C(c2ccc(Cl)cc2)C1` [Venetoclax] + C[C@@H](Nc1cc(F)cc(F)c1)c1cc(C(=O)N(C)C)cc2c(=O)cc(N3CCOCC3)oc12 [AZD8186] (first compound max 1 µM, 7x7, partner max 3 µM), for which the Bliss excess in [1] was 0.0494; in assay [2], 0.0204; in assay [3], -0.024; in assay [4] it was 0.0094; in assay [5], -0.0263; in assay [6] it was -0.0311. Further, the Bliss excess in assay [7] was -0.0201; in [8] it was -0.0241; in the assay on RD (Rhabdomyosarcoma), 0.0032; in assay [9], -0.0215; in the assay on NCI-H2731 (Mesothelioma), -0.0484; in [10], 0.037. Besides, the Bliss excess in [11] was -0.0297; in assay [12], 0.0358; in assay [13], -0.007; in assay [14] it was -0.024; in [15] it was 0.0138; in [16], -0.0271. Besides, the Bliss excess in assay [17] is -0.0316; in assay [18] it was -0.0637.
`COc1cc2c(cc1OCCCCCOc1cc3c(cc1OC)C(=O)N1C=C(C)C[C@H]1C=N3)N=C[C@@H]1CC(C)=CN1C2=O` [SG3199] + O=C(c1cc(Cc2n[nH]c(=O)c3ccccc23)ccc1F)N1CCN(C(=O)C2CC2)CC1 [Olaparib] (first compound max 0.001 µM, 7x7, partner max 10 µM): the Bliss excess in assay [1] is 0.0202; in assay [2], -0.0129; in [3], -0.0031; in [4] it was -0.0418; in assay [5], -0.0661; in [6], -0.0385. Also, the Bliss excess in assay [7] is -0.0322; in assay [8], -0.0432; in the assay on RD (Rhabdomyosarcoma), -0.0453; in assay [9] it was -0.0461; in the assay on NCI-H2731 (Mesothelioma), -0.0505; in [10], -0.0213. Further, the Bliss excess in assay [11] was -0.0398; in assay [12], -0.027; in assay [13], -0.0126; in [14] it was -0.0288; in assay [15], -0.0351; in assay [16], -0.0066. For the same compound, the Bliss excess in [17] was -0.119; in [18], -0.0503.
Consider `COc1cc2ncnc(Nc3ccc(F)c(Cl)c3)c2cc1OCCCN1CCOCC1` [Gefitinib] + CC(C)n1c(=O)n(C)c2cnc3cc(F)c(-c4ccc(OCCCN5CCCCC5)nc4)cc3c21 [AZD1390] (first compound max 10 µM, 7x7, partner max 0.3 µM), for which the Bliss excess in [1] was -0.0267; in assay [2] it was -0.0488; in assay [3] it was -0.0691; in [4], -0.0411; in assay [5] it was -0.0846; in [6], -0.0775. Besides, the Bliss excess in assay [7] was -0.0627; in assay [8], -0.097; in the assay on RD (Rhabdomyosarcoma), -0.0699; in assay [9], -0.0621; in the assay with NCI-H2731 (Mesothelioma) it was -0.0434; in assay [10], -0.0547. Moreover, the Bliss excess in assay [11] is -0.0579; in [12], -0.0317; in assay [13], -0.031; in assay [14], -0.0436; in assay [15], -0.0419; in assay [16], -0.0382. Moreover, the figures for the Bliss excess in [17] and in assay [18] were -0.0216 and -0.0477, respectively.
`Cc1cc2ncnn2cc1Nc1ncc2c(n1)n(C1CCOCC1)c(=O)n2C` [AZD7648] + C[C@@H]1COCCN1C2=NC(=NC(=C2)C3(CC3)[S@](=N)(=O)C)C4=C5C=CNC5=NC=C4 [AZD6738] (first compound max 10 µM, 7x7, partner max 10 µM): the Bliss excess in assay [1] is 0.0125; in assay [2], 0.0153; in [3], -0.0223; in [4], 0.0146; in assay [5], 0.0068; in assay [6], 0.038. The Bliss excess is -0.0097 in assay [7]; 0.0522 in assay [8]; 0.0425 with RD (Rhabdomyosarcoma); 0.0115 in assay [9]; 0.055 with NCI-H2731 (Mesothelioma); -0.0744 in assay [10]. In addition, the Bliss excess in [11] is -0.0072; in [12], 0.0007; in [13], 0.0297; in assay [14] it was 0.0087; in assay [15], 0.0253; in assay [16], -0.0034. Further, the Bliss excess in assay [17] was -0.0221; in assay [18] it was -0.0108.
Consider `CC1(C)CCC(CN2CCN(c3ccc(C(=O)NS(=O)(=O)c4ccc(NCC5CCOCC5)c([N+](=O)[O-])c4)c(Oc4cnc5[nH]ccc5c4)c3)CC2)=C(c2ccc(Cl)cc2)C1` [Venetoclax] + C[C@@H]1COCCN1C2=NC(=NC(=C2)C3(CC3)[S@](=N)(=O)C)C4=C5C=CNC5=NC=C4 [AZD6738] (first compound max 1 µM, 7x7, partner max 10 µM), for which the Bliss excess in assay [1] was -0.012; in assay [2], -0.0093; in assay [3], -0.0219; in assay [4] it was -0.0286; in [5] it was -0.0364; in assay [6], -0.0649. Moreover, the Bliss excess is -0.0662 in [7]; -0.0698 in [8]; 0.002 with RD (Rhabdomyosarcoma); -0.0262 in assay [9]; -0.0713 with NCI-H2731 (Mesothelioma); 0.0142 in assay [10]. In addition, the Bliss excess in assay [11] was -0.0338; in [12], -0.0214; in assay [13], 0.0258; in assay [14], -0.0055; in [15] it was 0.0287; in [16], 0.0388. Also, the values for the Bliss excess in assay [17] and in [18] were -0.0479 and -0.0733, respectively.
On to `C=CCn1c(=O)c2cnc(Nc3ccc(N4CCN(C)CC4)cc3)nc2n1-c1cccc(C(C)(C)O)n1` [AZD1775] + C[C@@H]1COCCN1C2=NC(=NC(=C2)C3(CC3)[S@](=N)(=O)C)C4=C5C=CNC5=NC=C4 [AZD6738] (first compound max 1 µM, partner max 10 µM), for which the Bliss excess in assay [1] was 0.0418; in [2] it was -0.0247; in assay [3], -0.0076; in [4], 0.0089; in [5], 0.0046; in assay [6] it was 0.0165. Moreover, the Bliss excess in [7] is -0.0067; in assay [8], 0.0157; in the assay on RD (Rhabdomyosarcoma) it was 0.0125; in assay [9], -0.0639; with NCI-H2731 (Mesothelioma), 0.0444; in assay [10] it was 0.0407. In addition, the Bliss excess is 0.0422 in assay [11]; 0.0446 in assay [12]; 0.0554 in assay [13]; 0.0459 in assay [14]; 0.0131 in assay [15]; -0.0189 in [16]. Moreover, the Bliss excess is -0.0034 in assay [17] and -0.0133 in [18].
